The subject of assay [1] is Ventricular Contractility in the Anesthetized Dog. Briefly: Ventricular Contractility in the Anesthetized Dog. In kind it is in vivo, Mongrel dogs. The note with it: Canis lupus familiaris, iv, i.v. bolus, read-out: ED50 (dose required to produce a peak increase in contractility of 50%). The protocol:
Experiments in Anesthetized Dogs Mongrel dogs of either sex ranging in weight from 7 to 14 kg. wer used. Anesthesia was induced with sodium pentobarbital (30 mg./kg., i.v.) and maintained with supplemental doses as required. A positive-pressure pump was used to ventilate the dogs through an endotracheal tube (18 strokes/minute, 20 ml./kg. stroke^-1), and a heating pad kept the body temperature at 37°-38° C. Femoral arterial blood pressure was measured through a polyethylene catheter filled with heparin solution (16 units/ml.) and connected to a Statham pressure transducer. A strain-gauge arch sutured to the right ventricle of the heart measured cardiac contractility. Tension on the gauge was adjusted to 50 g. and the gain of the recorder (Beckman dynograph) was set so that 50 g. caused a 10-mm. pen deflection; cardiac contractile tension was measured as millimeters of pen deflection or grams of tension. The drug was administered following a 30-45 minute equilibrium period as an i.v. bolus (2-5 ml.) in a normal saline vehicle. […] The maximum effects on contractility at various dose levels were determined and plotted and the dose required to produce a 50% increase in contractility (ED50) was determined by interpolation.

A further assay relates to Cat Papillary Muscles. In words: Positive Inotropic Activity in Isolated Cat Papillary Muscles. In kind it is cell-based. The conditions noted are these: Felis catus, control = 100 percent, read-out: Contractility of Papillary Muscle (peak response); for activity at 100 µM: Drug Concentration 10^-4 M; for activity at 10 µM: Drug Concentration 10^-5 M. As for the experimental part:
Positive Inotropic Activity in Isolated Cat Papillary Muscles […] A platinum hook secured one end of the muscle to an electrode mounted in the bottom of the bath, and a silk thread attached the tendon to a Statham isometric transducer. The baths contained Krebs-Henseleit solution (36° C., bubbled with 95 percent oxygen--5 percent carbon dioxide) of the following millimolar composition: NaCl, 118; KCl, 4.5; CaCl2, 2.5; KH2 PO4, 1.1; MgSO4, 1.2; NaHCO3, 25; and glucose, 11. A base-line tension of 1.5 g. was applied to each muscle. Square-wave pulses (5.0 msec. in duration, three times threshold voltage) delivered through the hook electrode and a second electrode positioned near the top of the muscle evoked 12 contractions/minute, which were recorded on a Grass polygraph. After the muscles had equilibrated for 60 minutes, the recorder gain was adjusted so that the pen deflected 10 mm. The drug was introduced in a solution of normal saline in an amount to bring the final concentration of the drug to 10^-5 or 10^-4 molar. Increases in contractility were tabulated as millimeters of pen deflection in excess of the baseline value. In each experiment the maximum contractility was measured. Test results are summarized in Table I and are expressed as percent of control (control=100 percent). Values are the average of results from 2 to 8 muscles.

Assay [2] concerns SRS-A release, guinea pig lung. Briefly: Inhibition of SRS-A (Slow-Reacting Substance of Anaphylaxis) From Guinea Pig Lung. It counts as cell-based. The conditions noted are these: Cavia porcellus, sensitized guinea pig lung, ovalbumin antigen, read-out: percent inhibition of SRS-A release. The protocol:
Inhibition of SRS-A (Slow-Reacting Substance of Anaphylaxis) From Guinea Pig Lung
Male, Hartley guinea pigs, usually 1-2 weeks old, were sensitized with respect to ovalbumin by intraperitoneal administration of 0.15 ml. hyperimmune serum obtained from guinea pigs actively sensitized against ovalbumin. After 2 days or more, the animals were decapitated, lungs were excised and perfused through the pulmonary artery with Krebs' bicarbonate solution of the following composition in mmoles/liter: KCl, 4.6; CaCl2.2 H2 O, 1.8; KH2 PO4, 1.2; MgSO4.7H2 O, 1.2; NaCl, 118.2; NaHCO3, 24.8; and dextrose, 10.0. Poorly perfused and bloody areas were discarded. Normal lung was cut into 1 mm. cubes with a McIlwain tissue chopper, washed with Krebs' solution and divided into 400 mg. aliquots. The fragmented tissue was then incubated at 37° C. for 15 minutes in Krebs' solution containing indomethacin to optimize SRS-A release and an appropriate concentration of experimental drug. Antigen (ovalbumin) was then added to make a final concentration of 1×10^-5 g./ml. Fifteen minutes later, the incubation medium was decanted and centrifuged at 3,000×g at 4° C. for 5 minutes. […] Release of SRS-A in the presence of the experimental drug was compared to a control sample and the results expressed as percent inhibition of SRS-A release.

Counter-ions that a name gives are not always drawn. Like-named read-outs stand apart in the source and are kept apart here.

Broadly, the ED50 is the midpoint of the dose-response relation. With `CCCOc1cc(SC)ccc1-c1nc2cnccc2[nH]1` [Example 43, 2-(2-n-propoxy-4-methylmercaptophenyl)imidazo[4,5-c]pyridine], in assay [1], the 50% effective dose (ED50) was 2.2 mg/kg.

Broadly, the inhibition is the share of the control response that was lost under treatment. Regarding `COc1ccc(-c2nc3cnccc3[nH]2)c(OC)c1` [Example 8, 2-(2,4-Dimethoxyphenyl)imidazo[4,5-c]pyridine hydrochloride], the median effective dose (ED50) in assay [1] came out at 0.27 mg/kg. In addition, in the assay on Cat Papillary Muscles, the activity at 100 µM amounted to 172% and the activity at 10 µM stood at 158%. In assay [2] (1×10^-4 M), the inhibition at 100 µM stood at 45.1%. The inhibition at 10 µM in assay [2] (1×10^-5 M) stood at 19.4%.

As for `COc1ccc(-c2nc3cnccc3[nH]2)c(OCC[S+](C)[O-])c1` (stereo not drawn) [Example 52, 2-[2-(β-methylsulfinylethoxy)-4-methoxyphenyl]imidazo[4,5-c]pyridine], the 50% effective dose (ED50) in assay [1] is 5.2 mg/kg. Moreover, in the assay with Cat Papillary Muscles, the activity at 100 µM came out at 185% and the activity at 10 µM stood at 122%.

Regarding `Cc1cccc(-c2nc3cnccc3[nH]2)c1` [Example 2, 2-(3-Methylphenyl)imidazo[4,5-c]pyridine], the ED50 in assay [1] was 1 mg/kg. In the assay with Cat Papillary Muscles, the activity at 100 µM worked out at 181% and the activity at 10 µM was 116%.

Regarding `COc1cc([S+](C)[O-])ccc1-c1nc2cnccc2[nH]1` (stereo not drawn) [Example 27, 2-(2-methoxy-4-methylsulfinylphenyl)imidazo[4,5-c]pyridine], in assay [1], the ED50 is 0.03 mg/kg. Moreover, in the assay on Cat Papillary Muscles, the activity at 100 µM stood at 200% and the activity at 10 µM was determined as 245%.

Turning to `CCCOc1cc([S+](C)[O-])ccc1-c1nc2cnccc2[nH]1` (stereo not drawn) [Example 54, 2-(2-n-propoxy-4-methylsulfinylphenyl)imidazo[4,5-c]pyridine], the ED50 in assay [1] was determined as 1 mg/kg. Further, in the assay on Cat Papillary Muscles, the activity at 100 µM amounted to 159% and the activity at 10 µM is 122%.

In the case of `Clc1ccc(-c2nc3cnccc3[nH]2)c(Cl)c1` [Example 47, 2-(2,4-dichlorophenyl)imidazo[4,5-c]pyridine], the ED50 in assay [1] stood at 0.67 mg/kg. Further, in the assay on Cat Papillary Muscles, the activity at 100 µM came out at 157% and the activity at 10 µM is 105%.

For the compound `COc1cc(SC)ccc1-c1nc2cnccc2[nH]1.Cl` [Example 23, 2-(2-methoxy-4-methylmercaptophenyl)imidazo[4,5-c]pyridine hydrochloride], in assay [1], the 50% effective dose (ED50) was 0.21 mg/kg. In the assay on Cat Papillary Muscles, the activity at 100 µM is 142% and the activity at 10 µM stood at 141%.

On to `COc1cc([N+](=O)[O-])ccc1-c1nc2cnccc2[nH]1` [Example 60, 2-(2-Methoxy-4-nitrophenyl)imidazo[4,5-c]pyridine], for which the ED50 in assay [1] is 0.015 mg/kg. In the assay with Cat Papillary Muscles, the activity at 100 µM was determined as 145% and the activity at 10 µM was determined as 142%.

As to `COc1ccc(-c2nc3cnccc3[nH]2)c(OCCSC)c1` [Example 39, 2-[2-(β-methylmercaptoethoxy)-4-methoxyphenyl]imidazo[4,5-c]pyridine], the median effective dose (ED50) in assay [1] turned out to be 1.1 mg/kg. Also, in the assay with Cat Papillary Muscles, the activity at 100 µM turned out to be 140% and the activity at 10 µM stood at 118%.

Consider `c1ccc(-c2nc3cnccc3[nH]2)cc1` [Example 7, 2-Phenylimidazo[4,5-c]pyridine], for which the 50% effective dose (ED50) in assay [1] (tested as the hydrochloride salt) turned out to be 2.5 mg/kg. For the same compound, in the assay on Cat Papillary Muscles, the activity at 100 µM is 192% and the activity at 10 µM turned out to be 107%.

Consider `COc1ccc(-c2nc3cnccc3[nH]2)cc1.Cl` [Example 15, 2-(4-methoxyphenyl)imidazo[4,5-c]pyridine hydrochloride], for which, in assay [1], the ED50 turned out to be 1.7 mg/kg. In the assay on Cat Papillary Muscles, the activity at 100 µM is 204% and the activity at 10 µM came out at 104%.

Turning to `CSc1ccc(-c2nc3cnccc3[nH]2)cc1.Cl` [Example 9, 2-(4-methylmercaptophenyl)imidazo[4,5-c]pyridine hydrochloride], in assay [1], the ED50 was 4 mg/kg. Further, in the assay on Cat Papillary Muscles, the activity at 100 µM turned out to be 205% and the activity at 10 µM was 113%.

With `COc1cc(C(F)(F)F)ccc1-c1nc2cnccc2[nH]1.Cl` [Example 59, 2-(2-Methoxy-4-trifluoromethylphenyl)imidazo[4,5-c]pyridine hydrochloride], in assay [1], the 50% effective dose (ED50) was 0.005 mg/kg. Moreover, in the assay on Cat Papillary Muscles, the activity at 100 µM came to 134% and the activity at 10 µM came out at 139%.

`CCOc1ccc(-c2nc3cnccc3[nH]2)cc1.Cl` [Example 13, 2-(4-ethoxyphenyl)imidazo[4,5-c]pyridine hydrochloride]: the 50% effective dose (ED50) in assay [1] was determined as 2.5 mg/kg. Further, in the assay with Cat Papillary Muscles, the activity at 100 µM is 157% and the activity at 10 µM worked out at 104%.

In the case of `CCCOc1cc(OC)ccc1-c1nc2cnccc2[nH]1` [Example 29, 2-(2-n-propoxy-4-methoxyphenyl)imidazo[4,5-c]pyridine], the ED50 in assay [1] came out at 1.3 mg/kg. Also, in the assay on Cat Papillary Muscles, the activity at 100 µM is 335% and the activity at 10 µM came out at 134%.

Consider `Cc1ccccc1-c1nc2cnccc2[nH]1` [Example 26, 2-(2-methylphenyl)imidazo[4,5-c]pyridine hydrochloride], for which the ED50 in assay [1] was 2.2 mg/kg. Besides, in the assay with Cat Papillary Muscles, the activity at 100 µM amounted to 188% and the activity at 10 µM was found to be 106%.

Turning to `Cc1ccc(-c2nc3cnccc3[nH]2)c(C)c1` [Example 24, 2-(2,4-dimethylphenyl)imidazo[4,5-c]pyridine hydrochloride], the ED50 in assay [1] was 1.4 mg/kg. In the assay with Cat Papillary Muscles, the activity at 100 µM was found to be 94% and the activity at 10 µM amounted to 87%.

`CCSCCOc1cc(OC)ccc1-c1nc2cnccc2[nH]1.Cl` [Example 45, 2-[2-(β-ethylmercaptoethoxy)-4-methoxyphenyl]imidazo[4,5-c]pyridine h ydrochloride]: the ED50 in assay [1] was determined as 1 mg/kg. In addition, in the assay on Cat Papillary Muscles, the activity at 100 µM is 125% and the activity at 10 µM came to 122%.

Turning to `CS(=O)(=O)c1ccc(-c2nc3cnccc3[nH]2)cc1` [Example 4, 2-(4-Methylsulfonylphenyl)imidazo[4,5-c]pyridine hydrochloride], the ED50 in assay [1] worked out at 7.5 mg/kg. Further, in the assay with Cat Papillary Muscles, the activity at 100 µM is 139% and the activity at 10 µM amounted to 117%.

For `COc1cc(S(C)(=O)=O)ccc1-c1nc2cnccc2[nH]1` [Example 50, 2-(2-methoxy-4-methylsulfonylphenyl)imidazo[4,5-c]pyridine], the 50% effective dose (ED50) in assay [1] stood at 0.02 mg/kg. Further, in the assay on Cat Papillary Muscles, the activity at 100 µM is 221% and the activity at 10 µM is 176%.

As to `COc1ccc(-c2nc3cnccc3[nH]2)cc1OC.Cl` [Example 56, 2-(3,4-dimethoxyphenyl)imidazo[4,5-c]pyridine hydrochloride], the ED50 in assay [1] was found to be 0.38 mg/kg. In the assay on Cat Papillary Muscles, the activity at 100 µM amounted to 252% and the activity at 10 µM stood at 163%.

For the origin of these results see patent US4758574A, “2-phenylimidazio (4,5-c) pyridines” (Eli Lilly and Company, priority 1986, dated 1988).
